Data reported in patent US10253006B2, “Assay for the detection of the phenylpiperazine family” (RANDOX LABORATORIES LIMITED, priority 2012, dated 2019).
Like-named read-outs stand apart in the source and are kept apart here.

Legend:
Format in all cases: binding, sheep
[1] = tested on: antibody 1 raised against Immunogen IV; assay: Biochip competitive immunoassay, antibody 1
Procedure: (§1) A semi-automated Evidence Investigator analyser (Randox Laboratories Ltd., Crumlin, UK) was used as the platform for a biochip assay for the detection of phenylpiperazines.
(§2) Immunogens were administered to 16-month old Suffolk sheep on a monthly basis to provide target specific polyclonal antisera. The immunisation mixture was prepared by adding 2 mg of immunogen prepared in PBS at a ratio of 50% Immunogen/PBS with 50% Freund's Complete adjuvant (Sigma, Product Number—F5881) and emulsifying the mixture to prepare the final product for immunisation. On day 0, 1 ml of the mixture described above was administered intramuscularly to adult sheep. Subsequent boosts (a total of 20 boosts) were administered intramuscularly to each sheep every 30 days. Freund's complete adjuvant (Sigma, Product Number—F5881) was used for primary immunizations and Freund's incomplete adjuvant (Sigma product Number—F5506) was used for all subsequent injections. Routine bleeds were taken between boosts to monitor the antibody titre and sensitivity, using hapten B conjugated to Horseradish peroxidase in a competitive ELISA, testing cross reactivity to 1-(3-Chlorophenyl)piperazine. In the case of the combination immunoassay, immunogens II and IV were administered to separate sheep and the resulting antisera were combined in a 1:1 ratio to form the antibody blend (1 ml of antisera from the sheep administered with Immunogen II was combined with 1 ml of antisera from the sheep administered with Immunogen IV). IgG was extracted from antisera and purified as described above, and the purified antibodies were immobilised on a biochip (9 mm×9 mm) (Randox Laboratories Ltd). The assay was based on competition for binding sites of a polyclonal antibody between Hapten B-HRP conjugate (Example 9) and phenylpiperazines and potential cross-reactants. The antibodies were immobilised and stabilised onto the biochip surface as previously described (Fitzgerald et al., 2005). Assay dilutent (155 μL), calibrator/phenylpiperazine or potential cross-reactant (25 μL) followed by Hapten-B conjugate (120 μL) were added to the appropriate biochip. The biochips were then incubated for 30 minutes at 30° C. on a thermoshaker set at 370 rpm. The biochips were then subjected to 2 quick wash cycles using the wash buffer provided, followed by 4×2 minute wash cycles. 250 μL of signal (1:1 luminol+peroxide, v/v) was then added to each biochip, and after 2 minutes the biochip carrier was imaged in the Evidence Investigator analyser.
(§3) Calibration curves were generated using the Biochip-based immunoassay. IC50 values were calculated from the graphs by taking 50% of the signal from the zero calibrator and reading the corresponding value on the x-axis, equivalent to the concentration of unlabelled ligand which reduces specific binding of labelled ligand by 50%. Specificity (measured as percentage cross-reactivity−[IC50 (analyte)/IC50 (cross-reactant)]×100) was also tested against a range of piperazine derivatives and other compounds sharing structural features (see table 1).

[2] = tested on: antibody 2 raised against Immunogen II
Procedure: as §1, §2, §3

[3] = tested on: Combination of antibodies 1 & 2 (antisera combined in a 1:1 ratio)
Procedure: as §1, §2, §3

[4] = Antibody 1, Hapten B-HRP conjugate
[5] = Antibody 1, standardized to 1-(3-chlorophenyl)piperazine monohydrochloride, Hapten B-HRP conjugate
[6] = Antibody 2, Hapten B-HRP conjugate
[7] = Antibody 2, standardized to 1-(3-chlorophenyl)piperazine monohydrochloride, Hapten B-HRP conjugate
[8] = Combination of antibodies 1 & 2, Hapten B-HRP conjugate
[9] = Combination of antibodies 1 & 2, standardized to 1-(3-chlorophenyl)piperazine monohydrochloride, Hapten B-HRP conjugate

Compound	IC50 [1, 4] [ng/mL]	Cross-reactivity (%) [1, 5] [%]	IC50 [2, 6] [ng/mL]	Cross-reactivity (%) [2, 7] [%]	IC50 [3, 8] [ng/mL]	Cross-reactivity (%) [3, 9] [%]	Cross-reactivity (%) [1] [%]	IC50 [1] [ng/mL]	Cross-reactivity (%) [2] [%]	IC50 [2] [ng/mL]	Cross-reactivity (%) [3] [%]	IC50 [3] [ng/mL]
COc1ccccc1N1CCNCC1 [1-(2-Methoxyphenyl)piperazine]	335.160	<1	8.770	34	15.553	17						
Clc1cccc(N2CCNCC2)c1 [1-(3-Chlorophenyl)piperazine (mCPP), 1-(3-chlorophenyl)piperazine]	0.907	100	2.554	100	2.075	100						
Cc1cccc(N2CCNCC2)c1 [1-(3-Methylphenyl)piperazine (mMPP), 1-(3-Methylphenyl)piperazine]	0.840	129	1.697	230	1.418	191						
FC(F)(F)c1cccc(N2CCNCC2)c1 [1-(3-Trifluoromethylphenyl)piperazine]	7.620	13	4.831	61	5.958	44						
Oc1cccc(N2CCNCC2)c1 [1-(3-hydroxyphenyl)piperazine]							31	3.469	156	2.504	95	2.848
Fc1ccc(N2CCNCC2)cc1 [1-(4-Fluorophenyl)piperazine]	1.085	54	7.646	38	5.113	51						
COc1ccc(N2CCNCC2)cc1 [1-(4-Methoxyphenyl)piperazine (pMeOPP), 1-(4-methoxyphenyl)piperazine]	0.868	68	19.771	20	10.226	26						
Oc1ccc(N2CCNCC2)cc1 [1-(4-hydroxyphenyl)piperazine]	1.029	57	28.195	10	15.032	18						
CN1CCNC(c2ccccc2)C1 (centres unmarked) [1-Methyl-3-phenylpiperazine]		<1		<1		<1						
c1ccc(CN2CCNCC2)cc1 [1-benzylpiperazine (BZP), 1-benzylpiperazine]	232.706	<1		<1		<1						
c1ccc(N2CCNCC2)cc1 [1-phenylpiperazine]	1.017	106	2.795	140	2.163	125						
Nc1cccc(C(F)(F)F)c1O [3-Amino-2-hydroxybenzotrifluoride]		<1		<1		<1						
OC1(c2ccc(Cl)cc2)CCNCC1 [4-(4-Chlorophenyl)-4-Hydroxypiperidine]	218.980	<1		<1		<1						
CCCCCn1cc(C(=O)c2cccc3ccccc23)c2ccccc21 [JWH-018]		<1		<1		<1						
CCCCCn1cc(C(=O)Cc2ccccc2OC)c2ccccc21 [JWH-250]		<1		<1		<1						
CCC(C(=O)c1ccc2c(c1)OCO2)N1CCCC1 (centres unmarked) [MDPBP]		<1		<1		<1						
CNC(C)C(=O)c1ccc(C)cc1 (centres unmarked) [Mephedrone]		<1		<1		<1						
COc1cc(CCN)cc(OC)c1OC [Mescaline]		<1		<1		<1						
C1CNCCN1 [Piperazine]							<1		<1		<1	
COC(=O)[C@@H]1C[C@H](OC(C)=O)C(=O)[C@H]2[C@@]1(C)CC[C@H]1C(=O)O[C@H](c3ccoc3)C[C@]21C [Salvinorin A]		<1		<1		<1						
O=c1n(CCCN2CCN(c3cccc(Cl)c3)CC2)nc2ccccn12 [Trazadone]		<1		<1							<1	
(+)-Pseudoephedrine		<1		<1		<1						
